Reference: the supplement of paper PMC10307832

How the values were obtained:
Assay in all cases: relative viability (nuclei count vs DMSO), 5 days (fraction); higher = more cells survive
UMC-11 = system: UMC-11
Method in brief: (§1)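 A single step with final 0.05% Triton X-100, 1% formaldehyde and 1 ug/ml Hoechst fixed the cells and stained nuclei 5 days after treatment. Lung cancer cell lines in 1536-well plates had been treated by pin tool the day after seeding with one drug alone or a fixed anchor-drug dose plus five library-drug doses (not always all listed) in √10 steps, and nuclei were counted on 4× images. Relative viability is the ratio of nuclei in treated wells to nuclei in vehicle wells, taken as the median of duplicate plates.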

NCI-H1975 = system: NCI-H1975
Method in brief: as §1

NCI-H2087 = system: NCI-H2087
Method in brief: as §1

NCI-H2009 = system: NCI-H2009
Method in brief: as §1

H3255 = system: H3255
Method in brief: as §1

NCI-H2085 = system: NCI-H2085
Method in brief: as §1

NCI-H23 = system: NCI-H23
Method in brief: as §1

HCC-827 = system: HCC-827
Method in brief: as §1

LXF-289 = system: LXF-289
Method in brief: as §1

PC-3 [JPC-3] = system: PC-3 [JPC-3]
Method in brief: as §1

NCI-H1437 = system: NCI-H1437
Method in brief: as §1

LC-2-ad = system: LC-2-ad
Method in brief: as §1

LCLC-103H = system: LCLC-103H
Method in brief: as §1

NCI-H661 = system: NCI-H661
Method in brief: as §1

NCI-H2342 = system: NCI-H2342
Method in brief: as §1

COR-L23 = system: COR-L23
Method in brief: as §1

NCI-H2228 = system: NCI-H2228
Method in brief: as §1

ABC-1 = system: ABC-1
Method in brief: as §1

HCC-366 = system: HCC-366
Method in brief: as §1

SK-MES-1 = system: SK-MES-1
Method in brief: as §1

PC-14 = system: PC-14
Method in brief: as §1

HCC-15 = system: HCC-15
Method in brief: as §1

NCI-H1666 = system: NCI-H1666
Method in brief: as §1

With `CN1CCN(CCOc2cc(OC3CCOCC3)c3c(Nc4c(Cl)ccc5c4OCO5)ncnc3c2)CC1` [Saracatinib] + O=C(CCCCCCC(=O)Nc1ccccc1)NO [Vorinostat] (partner 1 µM) the relative viability (UMC-11; first compound 0.02 µM) was 0.376, the relative viability (UMC-11; first compound 0.2 µM) was 0.363 and the relative viability (UMC-11; first compound 0.6325 µM) was 0.388. It also gave a relative viability (UMC-11; first compound 2 µM) of 0.253, a relative viability (NCI-H1975; first compound 0.02 µM) of 0.72 and a relative viability (NCI-H1975; first compound 0.2 µM) of 0.716. It also gave a relative viability (NCI-H1975; first compound 0.6325 µM) of 0.725, a relative viability (NCI-H1975; first compound 2 µM) of 0.563 and a relative viability (NCI-H2087; first compound 0.02 µM) of 0.696. For the same compound, the relative viability (NCI-H2087; first compound 0.2 µM) was 0.564, the relative viability (NCI-H2087; first compound 0.6325 µM) was 0.54 and the relative viability (NCI-H2087; first compound 2 µM) was 0.95. For the same compound, the relative viability (NCI-H2009; first compound 0.02 µM) was 0.754, the relative viability (NCI-H2009; first compound 0.2 µM) was 0.653 and the relative viability (NCI-H2009; first compound 0.6325 µM) was 0.677. It also gave a relative viability (NCI-H2009; first compound 2 µM) of 0.744, a relative viability (H3255; first compound 0.02 µM) of 0.79 and a relative viability (H3255; first compound 0.2 µM) of 0.684. It also gave a relative viability (H3255; first compound 0.6325 µM) of 0.965, a relative viability (H3255; first compound 2 µM) of 0.337 and a relative viability (NCI-H2085; first compound 0.02 µM) of 0.816. The relative viability (NCI-H2085; first compound 0.2 µM) was 0.694, the relative viability (NCI-H2085; first compound 0.6325 µM) was 0.896 and the relative viability (NCI-H2085; first compound 2 µM) was 0.815. It also gave a relative viability (NCI-H23; first compound 0.02 µM) of 0.539, a relative viability (NCI-H23; first compound 0.6325 µM) of 0.658 and a relative viability (NCI-H23; first compound 2 µM) of 0.442. The relative viability (HCC-827; first compound 0.02 µM) was 0.926, the relative viability (HCC-827; first compound 0.2 µM) was 0.643 and the relative viability (HCC-827; first compound 0.6325 µM) was 0.354. The relative viability (HCC-827; first compound 2 µM) was 0.15, the relative viability (LXF-289; first compound 0.02 µM) was 0.78 and the relative viability (LXF-289; first compound 0.2 µM) was 0.573. The relative viability (LXF-289; first compound 0.6325 µM) was 0.773, the relative viability (LXF-289; first compound 2 µM) was 0.715 and the relative viability (PC-3 [JPC-3]; first compound 0.02 µM) was 0.819. For the same compound, the relative viability (PC-3 [JPC-3]; first compound 0.2 µM) was 0.47, the relative viability (PC-3 [JPC-3]; first compound 0.6325 µM) was 0.529 and the relative viability (PC-3 [JPC-3]; first compound 2 µM) was 0.477. The relative viability (NCI-H1437; first compound 0.02 µM) was 1.05, the relative viability (NCI-H1437; first compound 0.2 µM) was 0.995 and the relative viability (NCI-H1437; first compound 0.6325 µM) was 1.14. For the same compound, the relative viability (NCI-H1437; first compound 2 µM) was 1.17, the relative viability (LC-2-ad; first compound 0.02 µM) was 0.757 and the relative viability (LC-2-ad; first compound 0.2 µM) was 0.668. For the same compound, the relative viability (LC-2-ad; first compound 0.6325 µM) was 0.777, the relative viability (LC-2-ad; first compound 2 µM) was 0.68 and the relative viability (LCLC-103H; first compound 0.02 µM) was 0.868. The relative viability (LCLC-103H; first compound 0.2 µM) was 0.733, the relative viability (LCLC-103H; first compound 0.6325 µM) was 0.846 and the relative viability (LCLC-103H; first compound 2 µM) was 0.762. The relative viability (NCI-H661; first compound 0.02 µM) was 0.798, the relative viability (NCI-H661; first compound 0.2 µM) was 0.808 and the relative viability (NCI-H661; first compound 0.6325 µM) was 0.81. The relative viability (NCI-H661; first compound 2 µM) was 0.693, the relative viability (NCI-H2342; first compound 0.02 µM) was 0.774 and the relative viability (NCI-H2342; first compound 0.2 µM) was 0.747. For the same compound, the relative viability (NCI-H2342; first compound 0.6325 µM) was 0.782, the relative viability (NCI-H2342; first compound 2 µM) was 0.833 and the relative viability (COR-L23; first compound 0.02 µM) was 0.361. The relative viability (COR-L23; first compound 0.2 µM) was 0.41, the relative viability (COR-L23; first compound 0.6325 µM) was 0.469 and the relative viability (COR-L23; first compound 2 µM) was 0.406. For the same compound, the relative viability (NCI-H2228; first compound 0.02 µM) was 0.8, the relative viability (NCI-H2228; first compound 0.2 µM) was 0.6 and the relative viability (NCI-H2228; first compound 0.6325 µM) was 0.611. The relative viability (NCI-H2228; first compound 2 µM) was 0.633, the relative viability (ABC-1; first compound 0.02 µM) was 0.905 and the relative viability (ABC-1; first compound 0.2 µM) was 0.99. For the same compound, the relative viability (ABC-1; first compound 0.6325 µM) was 1.37, the relative viability (ABC-1; first compound 2 µM) was 0.857 and the relative viability (HCC-366; first compound 0.02 µM) was 0.4. For the same compound, the relative viability (HCC-366; first compound 0.2 µM) was 0.135, the relative viability (HCC-366; first compound 0.6325 µM) was 0.399 and the relative viability (HCC-366; first compound 2 µM) was 0.221. For the same compound, the relative viability (SK-MES-1; first compound 0.02 µM) was 1.17, the relative viability (SK-MES-1; first compound 0.2 µM) was 1.05 and the relative viability (SK-MES-1; first compound 0.6325 µM) was 1.17. For the same compound, the relative viability (SK-MES-1; first compound 2 µM) was 0.83, the relative viability (PC-14; first compound 0.02 µM) was 0.759 and the relative viability (PC-14; first compound 0.2 µM) was 0.247. It also gave a relative viability (PC-14; first compound 0.6325 µM) of 0.163, a relative viability (PC-14; first compound 2 µM) of 0.0854 and a relative viability (HCC-15; first compound 0.02 µM) of 0.902. The relative viability (HCC-15; first compound 0.2 µM) was 0.859, the relative viability (HCC-15; first compound 0.6325 µM) was 0.931 and the relative viability (HCC-15; first compound 2 µM) was 0.861. The relative viability (NCI-H1666; first compound 0.02 µM) was 0.988, the relative viability (NCI-H1666; first compound 0.2 µM) was 0.914 and the relative viability (NCI-H1666; first compound 0.6325 µM) was 1.12. It also gave a relative viability (NCI-H1666; first compound 2 µM) of 1.2.
